Data as given in patent US20040157793A1, “Modified nucleosides as antiviral agents” (priority 2002, published 2004).
Read-outs that look alike come from different tables or passages of the source.

Key:
[1] = test system: HBV (wild-type virus: rtM204) in HepAD38 cells; assay: Suppression of HBV production in HepAD38 cells, viral DNA in supernatant by Q-PCR; assay type: cell-based; details: HepAD38 cells, 5-day incubation; for HepAD38 log10 inhibition at 10 μM: HBV DNA in supernatant; for EC90: concentration reducing viral load by 90%, unit printed in text only, read-out: HepAD38 EC90
From the text: The HepAD38 (wild-type virus: rtM204) and HepAD79 (3TC-resistant virus: rtV204) (Stuyver L. J. et al. 2001, Hepatol., 33:751-757) cell lines replicate HBV under conditions that can be regulated with tetracycline (King R. W. et al. 2000, Methods in Molecular Medicine, Vol 24: Antiviral Methods and Protocols, 43-50 (eds: D. Kinchington & R. F. Schinazi), Humana Press Inc, Totowa, N.J.); Ladner, et al. 1997, Antimicrob. Agents Chemother., 41:1715-1720; Ladner S. K., et al. 1998a. Antivir. Chem. Chemother., 9:65-72; Ladner S. K., et al. 1998b. Antimicrob. Agents Chemother., 42:2128-31). In the presence of this drug, the cell supernatant is virtually free of viral DNA, but upon the removal of tetracycline from the culture medium, these cells secrete virus-like particle into the supernatant.
(§1) HepAD38 and HepAD79 cells were seeded at 5×10^4 cells/well in a 96-well plate in seeding medium (DMEM/F12+10% FBS, 50 μg/ml penicillin, 50 μg/ml streptomycin, 100 μg/ml kanamycin, 400 μg/ml G418, and 0.3 μg/ml tetracycline) and incubated for 2 days at 37° C. in a 5% CO2, humidified atmosphere. The seeding media was removed, and cells were washed 3 times with PBS. Cells were then incubated with 200 μL assay medium (DMEM/F12+10% FBS+P/S/K) containing either (i) no compound, (ii) test compound, or (iii) control drugs at 10 μM. After an additional 5-day (HepAD38) or 13-day incubation (HepAD79, with renewal of the culture media at day 7), the cell supernatant was collected and stored at −70° C. until HBV DNA was quantified.
HBV DNA was extracted from supernatant using QiaAmp DNA blood Mini kit (Qiagen) and nucleic acids eluted in 200 μl Viral DNA was detected by quantitative PCR (Q-PCR). The TaqMan probe and primers were designed using the Primer Express software (Applied Biosystems) and cover highly conserved sequences complementary to the DNA sequences present in HBsAg. A total of 5 μl DNA was amplified using reagents and conditions as described by the manufacturer (Applied Biosystems). […]

[2] = test system: HBV (3TC-resistant virus: rtV204) in HepAD79 cells; assay: microbe, parasite or virus in culture; assay type: cell-based; details: for HepAD79 log10 inhibition at 10 μM / EC90: HepAD79 cells, 13-day incubation; for HepAD79 log10 inhibition at 10 μM: HBV DNA in supernatant; for EC90: read-out: HepAD79 EC90; for FI EC90 AD79/EC90 AD38: fold increase, EC90 HepAD79 over EC90 HepAD38
Method: as §1
HBV DNA was extracted from supernatant using QiaAmp DNA blood Mini kit (Qiagen) and nucleic acids eluted in 200 μl Viral DNA was detected by quantitative PCR (Q-PCR). The TaqMan probe and primers were designed using the Primer Express software (Applied Biosystems) and cover highly conserved sequences complementary to the DNA sequences present in HBsAg. A total of 5 μl DNA was amplified using reagents and conditions as described by the manufacturer (Applied Biosystems).
Subsequently, the time course of viral induction in HepAD79 cells over a 13-day incubation period was investigated.
Therefore, the DNA extracted from the cell supernatant was also amplified by Q-PCR for the presence of cellular DNA (the rRNA gene).

HepG2 cells [3] = assay: Lactic acid production in HepG2 cells; assay type: cell-based, human; details: HepG2, up to 100 μM, 14 days
Method: (§2) In addition, these compounds were also tested in the HepG2 cell line (14-day treatment, 100 μM) for their ability to reduce mitochondrial DNA levels (using a newly designed normalized Q-PCR protocol as described in Stuyver, L. J., et al. 2002, Antimicrob. Agents Chemother., 46:3854-3860) or lactic acid production.

HepG2 cells [4] = assay: Cell growth of HepG2 cells during 14-day treatment; assay type: cell-based, human; details: HepG2, up to 100 μM, 14 days
Method: as §2

[5] = test system: HepG2 cells (mitochondrial COXII DNA); details: for Average ΔCt ± s.d. MitCoxII / Average ΔCt ± s.d. rDNA / Average ΔΔCt ± s.d. MitCOXII-rDNA / Fold difference in COXII DNA levels normalized for rDNA (range) relative to control: HepG2, 14-day treatment; for effect on mitochondrial DNA levels (in words): HepG2, up to 100 μM, 14 days
M522V virus (rtV204 HBV) = details: Ono S. K. et al.; cited from earlier work

| Structure (SMILES) | HepAD38 log10 inhibition at 10 μM [1] [log10] | EC90 [1] [nM] | HepAD79 log10 inhibition at 10 μM [2] [log10] | EC90 [2] [nM] | FI EC90 AD79/EC90 AD38 [2] | effect on cell growth (in words) (HepG2 cells [4]) | Average ΔCt ± s.d. MitCoxII ([5]; 10 μM) | Average ΔCt ± s.d. rDNA ([5]; 10 μM) | Average ΔΔCt ± s.d. MitCOXII-rDNA ([5]; 10 μM) | Fold difference in COXII DNA levels normalized for rDNA (range) relative to control ([5]; 10 μM) | Average ΔCt ± s.d. MitCoxII ([5]; 100 μM) | Average ΔCt ± s.d. rDNA ([5]; 100 μM) | Average ΔΔCt ± s.d. MitCOXII-rDNA ([5]; 100 μM) | Fold difference in COXII DNA levels normalized for rDNA (range) relative to control ([5]; 100 μM) | effect on mitochondrial DNA levels (in words) [5] | further results |
| --- | --- | --- | --- | --- | --- | --- | --- | --- | --- | --- | --- | --- | --- | --- | --- | --- |
| Nc1nc(=O)n([C@@H]2C=C(F)[C@H](CO)O2)cc1F [L-3′F-D4FC, β-L-3′-fluoro-2′,3′-didehydro-2′,3′-dideoxy-5-fluorocytidine] | 2.8 ± 0.09 | 220 ± 140 | 1.56 ± 0.40 | 3100 | 14.1 | did not show any reduction in cell growth | 0.23 ± 0.13 | −0.10 ± 0.06 | 0.33 ± 0.10 | 0.80 (0.85-0.74) | −0.52 ± 0.28 | −0.94 ± 0.16 | 0.42 ± 0.13 | 0.75 (0.82-0.68) | no reductions in mitochondrial DNA levels | EC90 ([1]; listed as L-3F-D4FC): 250 nM; total lactic acid production (in words) (HepG2 cells [3]): no increase in total lactic acid production; Average ΔCt ± s.d. MitCoxII ([5]; 1 μM): 0.00 ± 0.13; Average ΔCt ± s.d. rDNA ([5]; 1 μM): −0.46 ± 0.06; Average ΔΔCt ± s.d. MitCOXII-rDNA ([5]; 1 μM): 0.35 ± 0.01; Fold difference in COXII DNA levels normalized for rDNA (range) relative to control ([5]; 1 μM): 0.78 (0.79-0.78) |
| Nc1nc(=O)n([C@@H]2C=C[C@H](CO)O2)cc1F [L-d4FC] | 2.56 ± 0.44 | 50 ± 20 | 1.64 ± 0.37 | 880 | 17.6 | reduced the cell growth significantly | 2.72 ± 0.27 | 3.89 ± 0.23 | −1.17 ± 0.47 | 2.25 (1.62-3.12) | 6.52 ± 0.14 | 8.76 ± 0.47 | 2.24 ± 0.58 | 4.72 (3.16-7.04) | did not specifically affect the mitochondrial DNA levels | EC50 (M522V virus (rtV204 HBV)): 1800 nM |
